Data as given in PMC11505200, “Exploring the 3,5-Dibromo-4,6-dimethoxychalcones and Their Flavone Derivatives as Dual α-Glucosidase and α-Amylase Inhibitors with Antioxidant and Anticancer Potential” (Antioxidants, 2024).
Like-named read-outs stand apart in the source and are kept apart here. One block for each compound: values may come before it.

Assays:
[1] = target: T1, α-glucosidase type 1 from Saccharomyces cerevisiae (Saccharomyces cerevisiae, UniProt P53341); assay: biochemical; assay type: biochemical; settings: for selectivity index (SI = IC50(α-glucosidase)/IC50(α-amylase)): ratio of α-glucosidase to α-amylase IC50
T1 construct: purchased Merck Life Science (Pty) Ltd. (Sigma-Aldrich) G5003
T1 sequence (P53341 whole entry): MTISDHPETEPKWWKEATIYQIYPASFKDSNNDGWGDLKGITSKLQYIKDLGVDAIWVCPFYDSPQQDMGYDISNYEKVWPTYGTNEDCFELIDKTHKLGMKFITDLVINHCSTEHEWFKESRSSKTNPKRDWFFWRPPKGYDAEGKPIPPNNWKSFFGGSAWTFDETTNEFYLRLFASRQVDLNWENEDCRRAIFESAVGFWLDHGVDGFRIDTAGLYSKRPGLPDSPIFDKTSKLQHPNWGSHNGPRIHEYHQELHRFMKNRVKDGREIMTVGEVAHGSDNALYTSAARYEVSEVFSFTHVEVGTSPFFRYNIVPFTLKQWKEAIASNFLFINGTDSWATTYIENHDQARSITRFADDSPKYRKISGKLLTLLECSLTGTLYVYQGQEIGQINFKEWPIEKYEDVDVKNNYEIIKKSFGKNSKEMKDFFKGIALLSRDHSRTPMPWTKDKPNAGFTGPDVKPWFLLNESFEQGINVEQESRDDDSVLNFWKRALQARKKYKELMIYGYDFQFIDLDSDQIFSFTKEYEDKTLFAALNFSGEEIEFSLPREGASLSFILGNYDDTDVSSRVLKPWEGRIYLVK
Method: The assays and analyses were performed in triplicates following a method described in a previous study. […] A solution of α-glucosidase type 1 from Saccharomyces cerevisiae (0.48 u/mL, 17 μL), 100 mM phosphate buffer (pH 6.8; 50 μL) and the test sample in DMSO (17 μL) were incubated at 37 °C for 10 min. This pre-incubation was followed by addition of 2 mM p-nitrophenyl-α-D-glucopyranoside (PNP-G, 17 μL) to each of the wells containing reaction mixtures to initiate the reaction. The plate was then incubated for 30 min. at 37 °C. The five absorbance readings were recorded at a wavelength of 405 nm for each triplicate run using a Varioskan flash microplate spectrophotometer (Thermo Scientific, Waltham, MA, USA). The average values obtained from the readings were used to determine the IC50 and standard deviation values. The values were calculated by the nonlinear regression analysis using the Graph Pad Prism version 8.0.1 software (San Diego, CA, USA) and expressed as the mean SD of three distinct experiments.

[2] = Nitric oxide (NO) free radical scavenging assay (Griess reagent); settings: mean ± SD; 1-50 μM
Method: Different concentrations (1, 5, 10, 25 and 50 μM) of the test compounds and quercetin (reference standard) were prepared in DMSO. A mixture of the compound (5 μL), 10 mM sodium nitroprusside (20 μL) and the phosphate buffer (5 μL) were incubated at 25 °C in a 96-well plate. The plate was incubated for 2.5 h at 25 °C followed by the addition of the Griess reagent (1.00 g of sulphanilic acid + 0.10 g naphthylethylene diamine dihydrochloride, 20 μL). The mixtures were allowed to stand for 30 min. […] The IC50 and SD values were calculated using the Graph Pad Prism software.

α-amylase = target: T2, α-amylase (Homo sapiens, UniProt P04746); assay: In vitro α-amylase inhibitory assay (α-Amylase Inhibitor Screening Kit); assay type: biochemical; settings: mean ± SD, triplicate; 1-50 μM
T2 construct: purchased Abcam ab283391
T2 sequence (P04746 16-511): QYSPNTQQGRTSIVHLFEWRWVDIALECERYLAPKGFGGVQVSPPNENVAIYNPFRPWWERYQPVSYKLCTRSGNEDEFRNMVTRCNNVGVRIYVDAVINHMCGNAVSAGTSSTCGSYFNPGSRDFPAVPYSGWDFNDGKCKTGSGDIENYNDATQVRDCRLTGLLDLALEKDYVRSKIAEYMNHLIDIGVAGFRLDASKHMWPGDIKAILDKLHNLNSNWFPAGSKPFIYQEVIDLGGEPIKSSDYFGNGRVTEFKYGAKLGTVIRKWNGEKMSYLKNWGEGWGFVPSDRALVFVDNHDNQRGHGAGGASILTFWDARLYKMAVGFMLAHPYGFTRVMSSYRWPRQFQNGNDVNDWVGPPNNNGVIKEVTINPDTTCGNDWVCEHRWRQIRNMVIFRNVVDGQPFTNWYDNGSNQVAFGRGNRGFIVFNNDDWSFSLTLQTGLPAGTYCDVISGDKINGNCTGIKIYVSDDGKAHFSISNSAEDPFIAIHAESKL
Method: The mixtures were incubated at 37 °C for 10 min. and the substrate prepared in the same fashion as the enzyme was added to the mixtures to initiate the reaction. The plate was then incubated at RT for 25 min. in the dark. Five different absorbance readings were recorded for each triplicate run at a wavelength of 405 nm using a Varioskan flash microplate spectrophotometer (Thermo Scientific, Waltham, MA, USA). The IC50 and SD values were calculated using the Graph Pad Prism software.

A549 cells = assay: Cytotoxicity, CellTiter-Blue cell viability assay; assay type: cell-based, human; settings: 24 h treatment, 1-100 μM
Method: (§1) The cells were maintained in Dulbecco’s Modified Eagle’s Medium (DMEM, Gibco, Carlsbad, CA, USA) supplemented with 10% fetal bovine serum (FBS) and 1% penicillin/streptomycin in culture flasks and incubated at 37 °C in 5% CO2. When the cells reached 85% confluency, they were detached using 2% trypsin. The cell count was performed using a hand-held automated cell counter (Scapter 3.0™, Merck, Burlington, MA, USA) and then seeded at 1 × 10^5 cells/well. The well-plates were incubated overnight to allow cell attachment. After 24 h, treatments were administered with different concentrations (1, 5, 10, 25, 50 and 100 μM) of the test compounds and the positive controls (quercetin and nintedanib). The mixtures were incubated for another 24 h and then 20 μL of the CellTiter-Blue (Cytek Biosciences, San Diago, CA, USA) solution (5 mg/mL) was added to all the wells. Fluorescence was measured at 560 nm excitation/590 nm emission using an Elisa microplate reader (ThermoFisher Scientific, Vario SkanFlash, Vantaa, Finland). The cell viability of the triplicate results was calculated using the GraphPad Prism software (Version 8, GraphPad Software Inc., San Diego, CA, USA) to fit the nonlinear regression dose–response curves to obtain the IC50 and standard deviation values.

MCF-7 cells = assay: Cytotoxicity, CellTiter-Blue cell viability assay; assay type: cell-based, human; settings: 24 h treatment, 1-100 μM
Method: as §1

Vero cells = assay: Cytotoxicity, CellTiter-Blue cell viability assay; assay type: cell-based, African green monkey (Cercopithecus aethiops); settings: 24 h treatment, 1-100 μM
Method: as §1

[3] = Metal ion chelation assay (UV-Vis spectrophotometry); assay type: physicochemical; settings: 60 μM in methanol with CuCl2, RT
Method: A solution of the test compound in methanol alone (60 μM, final concentration) or in the presence of CuCl2 or ZnCl2 was stirred at RT for 30 min. The absorption spectra were recorded at RT at wavelengths ranging from 200 to 600 nm using a Shimadzu UV/Vis spectrometer, model: UV-1800 240V (Shimadzu Europa GmbH, Albert-Han Strasse 6-10, 47269 Duisburg, Germany).

[4] = mean ± SD, triplicate, 1-50 μM, read-out: IC50 α-Glucosidase
[5] = Chlorocebus sabaeus, Vero, 24 h

IC50 [1, 4]: 19.5 ± 0.005 µM
IC50 [2]: 5.4 ± 0.002 µM
melting point: 288 to 289 °C
Compound: COc1c(Br)c(OC)c2c(=O)cc(-c3ccc(F)cc3)oc2c1Br [3b, 6,8-Dibromo-2-(4-fluorophenyl)-5,7-dimethoxy-4H-chromen-4-one]

IC50 [1, 4]: 15.2 ± 0.002 µM
IC50 [2]: 5.3 ± 0.005 µM
melting point: 233 to 236 °C
Compound: COc1ccc(-c2cc(=O)c3c(OC)c(Br)c(OC)c(Br)c3o2)cc1 [3d, 6,8-Dibromo-5,7-dimethoxy-2-(4-methoxyphenyl)-4H-chromen-4-one]

Compound: COc1c(Br)c(O)c(C(=O)/C=C/c2ccc(C(C)C)cc2)c(OC)c1Br [2f, (E)-1-(3,5-Dibromo-2-hydroxy-4,6-dimethoxyphenyl)-3-(4-isopropylphenyl)prop-2-en-1-one]
IC50 [1]: 23.6 ± 0.1 µM
IC50 [2]: 17.4 ± 0.015 µM
melting point: 128 to 130 °C

Compound: COc1c(Br)c(OC)c2c(=O)cc(-c3ccc(C(C)C)cc3)oc2c1Br [3f, 6,8-Dibromo-5,7-dimethoxy-2-(4-isopropylphenyl)-4H-chromen-4-one]
IC50 [1, 4]: 5.6 ± 0.006 µM
selectivity index (SI = IC50(α-glucosidase)/IC50(α-amylase)) [1]: 0.2
IC50 [2]: 12.1 ± 0.07 µM
IC50 (α-amylase): 28 ± 0.06 µM
melting point: 165 to 167 °C
IC50 (A549 cells; Homo sapiens, A549, 24 h): 16.1 ± 1.15 µM
IC50 (MCF-7 cells; Homo sapiens, MCF7, 24 h): 10.7 ± 1.02 µM
IC50 (Vero cells; [5]): 11.7 ± 1.02 µM

Compound: COc1ccc(/C=C/C(=O)c2c(O)c(Br)c(OC)c(Br)c2OC)cc1 [2d, (E)-1-(3,5-Dibromo-2-hydroxy-4,6-dimethoxyphenyl)-3-(4-methoxyphenyl)prop-2-en-1-one]
IC50 [1]: 16.3 ± 0.02 µM
IC50 [2]: 9.5 ± 0.004 µM
melting point: 155 to 158 °C

Compound: COc1c(Br)c(O)c(C(=O)/C=C/c2ccccc2)c(OC)c1Br [2a, (E)-1-(3,5-Dibromo-2-hydroxy-4,6-dimethoxyphenyl)-3-phenylprop-2-en-1-one]
IC50 [1]: 14.5 ± 0.01 µM
selectivity index (SI = IC50(α-glucosidase)/IC50(α-amylase)) [1]: 1.99
IC50 [2]: 11 ± 0.01 µM
IC50 (α-amylase): 7.3 ± 0.11 µM
melting point: 106 to 108 °C
IC50 (A549 cells; Homo sapiens, A549, 24 h): 7.4 ± 0.67 µM
IC50 (MCF-7 cells; Homo sapiens, MCF7, 24 h): 4.12 ± 0.55 µM
IC50 (Vero cells; [5]): 6.04 ± 0.54 µM

IC50 [1, 4]: 10.9 ± 0.007 µM
IC50 [2]: 13.3 ± 0.08 µM
IC50 (α-amylase): 25.4 ± 0.04 µM
melting point: 205 to 206 °C
Compound: COc1c(Br)c(OC)c2c(=O)cc(-c3ccc(C)cc3)oc2c1Br [3e, 6,8-Dibromo-5,7-dimethoxy-2-(p-tolyl)-4H-chromen-4-one]
IC50 (A549 cells; Homo sapiens, A549, 24 h): 6.42 ± 0.79 µM
IC50 (MCF-7 cells; Homo sapiens, MCF7, 24 h): 6.96 ± 0.66 µM
IC50 (Vero cells; [5]): 9.45 ± 0.79 µM

Compound: COc1c(Br)c(OC)c2c(=O)cc(-c3ccccc3)oc2c1Br [3a, 6,8-Dibromo-5,7-dimethoxy-2-phenyl-4H-chromen-4-one]
IC50 [1]: 14.2 ± 0.005 µM
melting point: 216 to 218 °C
IC50 (A549 cells): 12.4 ± 0.97 µM
IC50 (A549 cells; Homo sapiens, A549, 24 h): 16.2 ± 0.91 µM
IC50 (MCF-7 cells; Homo sapiens, MCF7, 24 h): 8.5 ± 0.82 µM
IC50 (Vero cells): 16.2 ± 0.91 µM
IC50 (Vero cells; [5]): 12.4 ± 0.97 µM

Compound: COC(=O)c1ccc2c(c1)NC(=O)/C2=C(\Nc1ccc(N(C)C(=O)CN2CCN(C)CC2)cc1)c1ccccc1 [Nintedanib, reference compound]
IC50 (A549 cells; Homo sapiens, A549, 24 h): 0.74 ± 0.15 µM
IC50 (MCF-7 cells; Homo sapiens, MCF7, 24 h): 0.53 ± 0.11 µM
IC50 (Vero cells; [5]): 0.89 ± 0.18 µM

Compound: O=c1c(O)c(-c2ccc(O)c(O)c2)oc2cc(O)cc(O)c12 [Quercetin, reference compound]
IC50 [2]: 4.8 ± 0.01 µM
IC50 (A549 cells; Homo sapiens, A549): 35.4 ± 1.78 µM
IC50 (MCF-7 cells; Homo sapiens, MCF7): 35.4 ± 1.78 µM
IC50 (Vero cells; Chlorocebus sabaeus, Vero): 45.6 ± 1.8 µM

Compound: COc1c(Br)c(O)c(C(=O)/C=C/c2ccc(C)cc2)c(OC)c1Br [2e, (E)-1-(3,5-Dibromo-2-hydroxy-4,6-dimethoxyphenyl)-3-(p-tolyl)prop-2-en-1-one]
IC50 [1]: 27.4 ± 0.02 µM
melting point: 151 to 152 °C

Compound: COc1c(Br)c(O)c(C(=O)/C=C/c2ccc(F)cc2)c(OC)c1Br [2b, (E)-1-(3,5-Dibromo-2-hydroxy-4,6-dimethoxyphenyl)-3-(4-fluorophenyl)prop-2-en-1-one]
IC50 [1, 4]: 7.3 ± 0.004 µM
selectivity index (SI = IC50(α-glucosidase)/IC50(α-amylase)) [1]: 1.12
IC50 [2]: 6.5 ± 0.005 µM
IC50 (α-amylase): 6.5 ± 0.07 µM
melting point: 132 to 134 °C
IC50 (A549 cells; Homo sapiens, A549, 24 h): 18.7 ± 0.89 µM
IC50 (MCF-7 cells; Homo sapiens, MCF7, 24 h): 12.1 ± 0.72 µM
IC50 (Vero cells; [5]): 25 ± 1.09 µM

Compound: COc1c(Br)c(O)c(C(=O)/C=C/c2ccc(Cl)cc2)c(OC)c1Br [2c, (E)-1-(3,5-Dibromo-2-hydroxy-4,6-dimethoxyphenyl)-3-(4-chlorophenyl)prop-2-en-1-one]
IC50 [1]: 12.3 ± 0.003 µM
selectivity index (SI = IC50(α-glucosidase)/IC50(α-amylase)) [1]: 0.68
IC50 [2]: 28 ± 0.003 µM
IC50 (α-amylase): 18 ± 0.06 µM
melting point: 150 to 152 °C
IC50 (A549 cells; Homo sapiens, A549, 24 h): 9.68 ± 0.8 µM
IC50 (MCF-7 cells; Homo sapiens, MCF7, 24 h): 15.1 ± 0.91 µM
IC50 (Vero cells; [5]): 20.3 ± 1.01 µM

IC50 [1, 4]: 0.8 ± 0.002 µM
IC50 [2]: 4.7 ± 0.02 µM
melting point: 280 to 283 °C
Compound: COc1c(Br)c(OC)c2c(=O)cc(-c3ccc(Cl)cc3)oc2c1Br [3c, 6,8-Dibromo-2-(4-chlorophenyl)-5,7-dimethoxy-4H-chromen-4-ONE]
IC50 (MCF-7 cells): 5.1 ± 0.61 µM
IC50 (MCF-7 cells; Homo sapiens, MCF7, 24 h): 6.96 ± 0.66 µM
coordination of Cu^2+ (change of UV-Vis maxima) [3]: some coordination of 3c to the copper ion
